Experimental data reported in patent US9062118B2 (priority 2006, dated 2015).
Bridge positions count the residues as written; N and C are the ends. Peptide text beside a SMILES is read from it.

Target: adult mouse muscle nAChR subtype (α1β1εδ) (Mus musculus, UniProt P02716+P04756+P20782)
Assay: cell-based

Sequence of adult mouse muscle nAChR subtype (α1β1εδ) (P02716 whole entry, looked up): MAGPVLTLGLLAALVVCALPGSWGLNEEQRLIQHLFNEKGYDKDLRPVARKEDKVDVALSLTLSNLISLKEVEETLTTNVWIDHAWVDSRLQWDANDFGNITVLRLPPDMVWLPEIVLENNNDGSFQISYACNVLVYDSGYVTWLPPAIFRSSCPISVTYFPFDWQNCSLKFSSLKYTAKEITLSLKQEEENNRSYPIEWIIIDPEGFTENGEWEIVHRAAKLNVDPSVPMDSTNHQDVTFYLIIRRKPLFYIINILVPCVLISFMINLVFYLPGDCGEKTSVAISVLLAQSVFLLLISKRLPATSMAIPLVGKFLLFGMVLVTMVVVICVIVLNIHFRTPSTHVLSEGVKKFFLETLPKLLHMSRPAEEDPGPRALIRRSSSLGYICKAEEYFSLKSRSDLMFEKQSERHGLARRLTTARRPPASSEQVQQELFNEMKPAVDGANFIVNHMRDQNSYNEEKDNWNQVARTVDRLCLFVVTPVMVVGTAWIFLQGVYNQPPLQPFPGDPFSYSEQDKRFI
Sequence of adult mouse muscle nAChR subtype (α1β1εδ) (P04756 whole entry, looked up): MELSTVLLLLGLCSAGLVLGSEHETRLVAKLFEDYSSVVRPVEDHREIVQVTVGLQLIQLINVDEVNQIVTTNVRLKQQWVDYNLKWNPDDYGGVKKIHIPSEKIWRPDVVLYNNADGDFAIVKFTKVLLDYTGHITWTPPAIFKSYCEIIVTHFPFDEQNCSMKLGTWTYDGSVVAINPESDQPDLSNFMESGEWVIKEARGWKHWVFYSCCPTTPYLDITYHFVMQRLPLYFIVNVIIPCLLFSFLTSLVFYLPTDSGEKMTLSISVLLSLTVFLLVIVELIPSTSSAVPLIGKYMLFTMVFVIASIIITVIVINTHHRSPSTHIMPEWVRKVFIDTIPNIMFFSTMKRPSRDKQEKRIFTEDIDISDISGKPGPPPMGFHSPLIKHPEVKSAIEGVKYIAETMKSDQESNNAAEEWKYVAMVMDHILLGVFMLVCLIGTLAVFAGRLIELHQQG
Sequence of adult mouse muscle nAChR subtype (α1β1εδ) (P20782 whole entry, looked up): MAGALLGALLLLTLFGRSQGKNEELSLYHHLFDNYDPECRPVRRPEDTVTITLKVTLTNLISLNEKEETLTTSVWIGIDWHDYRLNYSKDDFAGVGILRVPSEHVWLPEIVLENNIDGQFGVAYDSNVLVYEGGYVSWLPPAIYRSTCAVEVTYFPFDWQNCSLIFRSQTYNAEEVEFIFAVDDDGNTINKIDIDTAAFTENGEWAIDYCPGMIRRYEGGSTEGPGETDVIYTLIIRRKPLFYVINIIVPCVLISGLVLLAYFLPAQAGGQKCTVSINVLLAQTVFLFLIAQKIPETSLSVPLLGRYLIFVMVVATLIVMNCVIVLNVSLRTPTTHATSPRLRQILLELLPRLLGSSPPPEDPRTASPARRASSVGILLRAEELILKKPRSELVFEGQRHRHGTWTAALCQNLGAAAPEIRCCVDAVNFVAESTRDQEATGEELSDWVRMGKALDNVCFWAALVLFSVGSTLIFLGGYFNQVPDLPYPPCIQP

Question: For `CC[C@H](C)[C@@H]1NC(=O)CNC(=O)[C@H](C)NC(=O)[C@H](CCCNC(=N)N)NC(=O)[C@@H]2CSSC[C@@H](C(=O)N[C@@H](CCCNC(=N)N)C(N)=O)NC(=O)[C@H](Cc3c[nH]cn3)NC(=O)[C@H](CSSC[C@H](NC(=O)[C@@H](NC(=O)[C@H](CCCNC(=N)N)NC(=O)[C@@H]3CCCN3C(=O)[C@H](CCCNC(=N)N)NC(=O)[C@@H]3CCCN3C(=O)[C@@H](N)Cc3ccccc3)[C@@H](C)CC)C(=O)N[C@@H](CC(N)=O)C(=O)N[C@@H](CC(C)C)C(=O)N[C@@H](C)C(=O)N2)NC(=O)[C@H](Cc2ccccc2)NC(=O)[C@@H]2CCCN2C(=O)[C@H](Cc2ccc(O)cc2)NC(=O)[C@H](CCCCN)NC(=O)[C@H](Cc2c[nH]cn2)NC(=O)CNC1=O` [pl14a] (H-FPRPRICNLACRAGIGHKYPFCHCR-NH2; disulfide 7-22, 11-24), which IC50 is on record?
Answer: 0.507 µM
